Experimental data published in BindingDB's records for doi:10.1021/jm900075g (Wyeth Research, 2009).

biological target: RAC-alpha serine/threonine-protein kinase (Homo sapiens, UniProt P31749); experiment: Homogeneous Time-Resolved Fluorescence Resonance Energy Transfer Lance Assay; details: pH 7.4; 22 °C
Experimental: AKT1 was assayed using constitutively active Myr-AKT1 in low-binding 96-well plates. The kinase reactions were initiated by the addition of assay mix containing kinase assay buffer, ATP, and a biotinylated substrate peptide. After incubation, Phosphorylated biotin-GSK3alpha was detected by the time-resolved fluorescence resonance energy transfer Lance format with all reagents obtained from Perkin-Elmer. Subsequently, the plates were read in a Victor plate reader (Wallac/Perkin-Elmer).

RAC-alpha serine/threonine-protein kinase, sequence (P31749 whole entry): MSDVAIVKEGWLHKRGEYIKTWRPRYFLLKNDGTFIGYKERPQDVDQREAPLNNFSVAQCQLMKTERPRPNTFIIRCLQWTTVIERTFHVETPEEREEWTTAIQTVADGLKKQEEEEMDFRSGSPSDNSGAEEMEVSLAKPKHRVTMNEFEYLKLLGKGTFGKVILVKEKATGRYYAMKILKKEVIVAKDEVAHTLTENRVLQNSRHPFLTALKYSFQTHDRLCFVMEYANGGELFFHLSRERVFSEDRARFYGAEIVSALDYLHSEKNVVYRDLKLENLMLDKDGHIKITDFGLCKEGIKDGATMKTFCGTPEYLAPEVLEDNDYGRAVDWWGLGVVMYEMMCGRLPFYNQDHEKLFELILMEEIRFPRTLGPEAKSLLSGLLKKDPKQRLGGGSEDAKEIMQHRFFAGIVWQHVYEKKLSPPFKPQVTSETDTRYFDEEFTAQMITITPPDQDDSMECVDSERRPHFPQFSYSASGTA

| IC50 [nM] | Compound |
| --- | --- |
| 313 | C[C@H]1O[C@@H]2CC(=O)O[C@@H]2C2=C1C(=O)c1c(O)cccc1C2=O |
| 99 | O=C1C[C@@H]2O[C@H](c3ccsc3)C3=C(C(=O)c4ccccc4C3=O)[C@@H]2O1 [Pyranonaphthoquinone (PNQ) lactone, 11e] |
| 122 | O=C1C[C@H]2O[C@@H](c3ccsc3)C3=C(C(=O)c4ccccc4C3=O)[C@H]2O1 [Pyranonaphthoquinone (PNQ) lactone, 11f] |

| Compound | IC50 [nM] |
| --- | --- |
| C[C@H]1O[C@@H]2CC(=O)O[C@@H]2C2=C1C(=O)c1c(ccc(C3C[C@@H](N(C)C)[C@H](O)[C@@H](C)O3)c1O)C2=O (some centres undefined) [Lactoquinomycin A] | 149 |
